# Laboratory results reported in PMC4843002, “Identification of pyrazolopyridazinones as PDEδ inhibitors” (Nature Communications, 2016).
# Legend:
# D2S (h) = target: T1, D2S (h) (Homo sapiens, UniProt P14416); assay: Cerep binding, antagonist radioligand; settings: read-out: % Inhibition of Control Specific Binding
# T1 construct: purchased Eurofins Pharma Discovery Services (CEREP diversity panel)
# ETA (h) = target: T2, ETA (h) (Homo sapiens, UniProt P25101); assay: Cerep binding, agonist radioligand; settings: read-out: % Inhibition of Control Specific Binding
# T2 construct: purchased Eurofins Pharma Discovery Services (CEREP diversity panel)
# [1] = test system: Ca2+ channel (L, verapamil site) (phenylalkylamine); assay: Cerep binding, antagonist radioligand; settings: 5 µM
# CRF1 (h) = target: T3, CRF1 (h) (Homo sapiens, UniProt P34998); assay: Cerep binding, agonist radioligand; settings: read-out: % Inhibition of Control Specific Binding
# T3 construct: purchased Eurofins Pharma Discovery Services (CEREP diversity panel)
# TRH1 (h) = target: T4, TRH1 (h) (Homo sapiens, UniProt P34981); assay: Cerep binding, agonist radioligand; settings: read-out: % Inhibition of Control Specific Binding
# T4 construct: purchased Eurofins Pharma Discovery Services (CEREP diversity panel)
# AT2 (h) = target: T5, AT2 (h) (Homo sapiens, UniProt P50052); assay: Cerep binding, agonist radioligand; settings: read-out: % Inhibition of Control Specific Binding
# T5 construct: purchased Eurofins Pharma Discovery Services (CEREP diversity panel)
# kainate = assay: Cerep binding, agonist radioligand; settings: 5 µM
# BZD (central) = assay: Cerep binding, agonist radioligand; settings: 5 µM
# CB2 (h) = target: T6, CB2 (h) (Homo sapiens, UniProt P34972); assay: Cerep binding, agonist radioligand; settings: read-out: % Inhibition of Control Specific Binding
# T6 construct: purchased Eurofins Pharma Discovery Services (CEREP diversity panel)
# beta 1 (h) = target: T7, beta 1 (h) (Homo sapiens, UniProt P08588); assay: Cerep binding, agonist radioligand; settings: read-out: % Inhibition of Control Specific Binding
# T7 construct: purchased Eurofins Pharma Discovery Services (CEREP diversity panel)
# A1 (h) = target: T8, A1 (h) (Homo sapiens, UniProt P30542); assay: Cerep binding, antagonist radioligand; settings: read-out: % Inhibition of Control Specific Binding
# T8 construct: purchased Eurofins Pharma Discovery Services (CEREP diversity panel)
# SKCa channel = assay: Cerep binding, antagonist radioligand; settings: 5 µM
# D4.4 (h) = target: T9, D4.4 (h) (Homo sapiens, UniProt P21917); assay: Cerep binding, antagonist radioligand; settings: read-out: % Inhibition of Control Specific Binding
# T9 construct: purchased Eurofins Pharma Discovery Services (CEREP diversity panel)
# [2] = target: T10, norepinephrine transporter (h) (Homo sapiens, UniProt P23975); assay: Cerep binding, antagonist radioligand; settings: read-out: % Inhibition of Control Specific Binding
# T10 construct: purchased Eurofins Pharma Discovery Services (CEREP diversity panel)
# [3] = test system: sigma (non-selective) (h); assay: Cerep binding, agonist radioligand; design: species or system human; settings: 5 µM
# 5-HT transporter (h) = target: T11, 5-HT transporter (h) (Homo sapiens, UniProt P31645); assay: Cerep binding, antagonist radioligand; settings: read-out: % Inhibition of Control Specific Binding
# T11 construct: purchased Eurofins Pharma Discovery Services (CEREP diversity panel)
# AMPA = assay: Cerep binding, agonist radioligand; settings: 5 µM
# S6P phosphorylation = assay: western blot, S6P phosphorylation in PANC-1; settings: PANC-1, 20 μM, longer incubation times (>3 h)
# Description: To examine whether PDEδ inhibition by Deltarasin and Deltazinone 1 downregulates the signal transduction via these pathways, we examined the phosphorylation of extracellular signal regulated kinase (Erk) and S6 Ribosomal Protein (S6P) in the oncogenic KRas-dependent Panc-Tu-1 and KRas-independent PANC-1 cells. […] Cells were lysed with RIPA-buffer (20 mM Tris pH 7.5, 150 mM NaCl, 0.5 mM Na2 EDTA, 1 % sodium deoxycholate, 0.1% sodium dodecyl sulfate, 1% IGEPAL supplemented with Complete Mini EDTA-free protease inhibitor (Roche Applied Science) and 1% phosphatase inhibitor cocktail 2 and 3 (P5726 and P0044, Sigma Aldrich), scraped off after 5 min on ice and centrifuged at 14,000g for 20 min at 4 °C. SDS–polyacrylamide gel electrophoresis was carried out with 10–25 μg of whole-cell lysate from each sample. The gels were blotted onto polyvinylidene difluoride membrane (Millipore) and blocked for 1 h at room temperature. […] Blots were scanned on a LI-COR Odyssey imaging system.
# Western blots were quantified using ImageJ. The background of the blots was subtracted by applying the rolling ball subtraction with a radius of 50 pixels. Afterwards the integrated intensity of the bands was measured.
# 5-HT (non-selective) = assay: Cerep binding, agonist radioligand; settings: 5 µM
# D3 (h) = target: T12, D3 (h) (Homo sapiens, UniProt P35462); assay: Cerep binding, antagonist radioligand; settings: read-out: % Inhibition of Control Specific Binding
# T12 construct: purchased Eurofins Pharma Discovery Services (CEREP diversity panel)
# GABA (non-selective) = assay: Cerep binding, agonist radioligand; settings: 5 µM
# Na+ channel (site 2) = assay: Cerep binding, antagonist radioligand; settings: 5 µM
# [4] = test system: guanylyl cyclase (h) (activator effect); assay: Cerep enzyme and cell-based assays; type: biochemical, human; settings: 5 µM
# B1 (h) = target: T13, B1 (h) (Homo sapiens, UniProt P46663); assay: Cerep binding, agonist radioligand; settings: read-out: % Inhibition of Control Specific Binding
# T13 construct: purchased Eurofins Pharma Discovery Services (CEREP diversity panel)
# PDE3A (h) = target: T14, PDE3A (h) (Homo sapiens, UniProt Q14432); assay: Cerep enzyme and cell-based assays; type: biochemical; settings: read-out: % Inhibition of Control Values
# T14 construct: Eurofins Pharma Discovery Services (CEREP diversity panel, outsourced assay)
# MC4 (h) = target: T15, MC4 (h) (Homo sapiens, UniProt P32245); assay: Cerep binding, agonist radioligand; settings: read-out: % Inhibition of Control Specific Binding
# T15 construct: purchased Eurofins Pharma Discovery Services (CEREP diversity panel)
# ER (non-selective) (h) = assay: Cerep binding, agonist radioligand; design: species or system human; settings: 5 µM
# KATP channel = assay: Cerep binding, antagonist radioligand; settings: 5 µM
# D1 (h) = target: T16, D1 (h) (Homo sapiens, UniProt P21728); assay: Cerep binding, antagonist radioligand; settings: read-out: % Inhibition of Control Specific Binding
# T16 construct: purchased Eurofins Pharma Discovery Services (CEREP diversity panel)
# CCK1 (CCKA) (h) = target: T17, CCK1 (CCKA) (h) (Homo sapiens, UniProt P32238); assay: Cerep binding, agonist radioligand; settings: read-out: % Inhibition of Control Specific Binding
# T17 construct: purchased Eurofins Pharma Discovery Services (CEREP diversity panel)
# PKCalpha (h) = target: T18, PKCalpha (h) (Homo sapiens, UniProt P17252); assay: Cerep enzyme and cell-based assays; type: biochemical; settings: read-out: % Inhibition of Control Values
# T18 construct: Eurofins Pharma Discovery Services (CEREP diversity panel, outsourced assay)
# KV channel = assay: Cerep binding, antagonist radioligand; settings: 5 µM
# NOP (ORL1) (h) = target: T19, NOP (ORL1) (h) (Homo sapiens, UniProt P41146); assay: Cerep binding, agonist radioligand; settings: read-out: % Inhibition of Control Specific Binding
# T19 construct: purchased Eurofins Pharma Discovery Services (CEREP diversity panel)
# opioid (non-selective) = assay: Cerep binding, antagonist radioligand; settings: 5 µM
# P2X = assay: Cerep binding, agonist radioligand; settings: 5 µM
# CCK2 (CCKB) (h) = target: T20, CCK2 (CCKB) (h) (Homo sapiens, UniProt P32239); assay: Cerep binding, agonist radioligand; settings: read-out: % Inhibition of Control Specific Binding
# T20 construct: purchased Eurofins Pharma Discovery Services (CEREP diversity panel)
# Eg5 (h) = target: T21, Eg5 (h) (Homo sapiens, UniProt P52732); assay: Cerep enzyme and cell-based assays; type: biochemical; settings: read-out: % Inhibition of Control Values
# T21 construct: Eurofins Pharma Discovery Services (CEREP diversity panel, outsourced assay)
# PPARgamma (h) = target: T22, PPARgamma (h) (Homo sapiens, UniProt P37231); assay: Cerep binding, agonist radioligand; settings: read-out: % Inhibition of Control Specific Binding
# T22 construct: purchased Eurofins Pharma Discovery Services (CEREP diversity panel)
# Cl- channel (GABA-gated) = assay: Cerep binding, antagonist radioligand; settings: 5 µM
# 5-lipoxygenase (h) = target: T23, 5-lipoxygenase (h) (Homo sapiens, UniProt P09917); assay: Cerep enzyme and cell-based assays; type: biochemical; settings: read-out: % Inhibition of Control Values
# T23 construct: purchased Eurofins Pharma Discovery Services (CEREP diversity panel)
# AR (h) = target: T24, AR (h) (Homo sapiens, UniProt P10275, T878A); assay: Cerep binding, agonist radioligand; settings: read-out: % Inhibition of Control Specific Binding
# T24 construct: purchased Eurofins Pharma Discovery Services (CEREP diversity panel)
# PDE1B (h) = target: T25, PDE1B (h) (Homo sapiens, UniProt Q01064); assay: Cerep enzyme and cell-based assays; type: biochemical; settings: read-out: % Inhibition of Control Values
# T25 construct: purchased Eurofins Pharma Discovery Services (CEREP diversity panel)
# GR (h) = target: T26, GR (h) (Homo sapiens, UniProt P04150); assay: Cerep binding, agonist radioligand; settings: read-out: % Inhibition of Control Specific Binding
# T26 construct: purchased Eurofins Pharma Discovery Services (CEREP diversity panel)
# V2 (h) = target: T27, V2 (h) (Homo sapiens, UniProt P30518); assay: Cerep binding, agonist radioligand; settings: read-out: % Inhibition of Control Specific Binding
# T27 construct: purchased Eurofins Pharma Discovery Services (CEREP diversity panel)
# BLT1 (LTB4) (h) = target: T28, BLT1 (LTB4) (h) (Homo sapiens, UniProt Q15722); assay: Cerep binding, agonist radioligand; settings: read-out: % Inhibition of Control Specific Binding
# T28 construct: purchased Eurofins Pharma Discovery Services (CEREP diversity panel)
# [5] = test system: COMT (catechol-O-methyl transferase); assay: Cerep enzyme and cell-based assays; type: biochemical; settings: 5 µM
# B2 (h) = target: T29, B2 (h) (Homo sapiens, UniProt P30411); assay: Cerep binding, agonist radioligand; settings: read-out: % Inhibition of Control Specific Binding
# T29 construct: purchased Eurofins Pharma Discovery Services (CEREP diversity panel)
# T8 sequence (P30542 whole entry): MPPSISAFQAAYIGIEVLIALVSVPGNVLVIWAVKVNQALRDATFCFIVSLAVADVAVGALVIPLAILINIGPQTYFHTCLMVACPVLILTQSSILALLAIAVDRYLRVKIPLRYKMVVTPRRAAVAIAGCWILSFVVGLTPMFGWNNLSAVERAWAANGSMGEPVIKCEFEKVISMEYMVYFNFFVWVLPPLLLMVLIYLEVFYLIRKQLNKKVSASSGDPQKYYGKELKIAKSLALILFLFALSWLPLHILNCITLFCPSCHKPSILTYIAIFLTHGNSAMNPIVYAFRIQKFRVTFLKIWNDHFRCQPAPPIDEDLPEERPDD
# T28 sequence (Q15722 whole entry): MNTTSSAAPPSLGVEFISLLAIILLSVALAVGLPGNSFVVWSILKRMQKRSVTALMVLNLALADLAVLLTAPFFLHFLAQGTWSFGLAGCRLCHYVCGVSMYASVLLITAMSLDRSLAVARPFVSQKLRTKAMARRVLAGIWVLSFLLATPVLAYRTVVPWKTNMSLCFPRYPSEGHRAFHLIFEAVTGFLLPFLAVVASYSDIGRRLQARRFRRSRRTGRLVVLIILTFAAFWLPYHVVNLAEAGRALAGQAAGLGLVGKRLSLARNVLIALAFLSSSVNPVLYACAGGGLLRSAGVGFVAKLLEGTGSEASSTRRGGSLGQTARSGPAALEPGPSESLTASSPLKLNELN
# T2 sequence (P25101 21-427): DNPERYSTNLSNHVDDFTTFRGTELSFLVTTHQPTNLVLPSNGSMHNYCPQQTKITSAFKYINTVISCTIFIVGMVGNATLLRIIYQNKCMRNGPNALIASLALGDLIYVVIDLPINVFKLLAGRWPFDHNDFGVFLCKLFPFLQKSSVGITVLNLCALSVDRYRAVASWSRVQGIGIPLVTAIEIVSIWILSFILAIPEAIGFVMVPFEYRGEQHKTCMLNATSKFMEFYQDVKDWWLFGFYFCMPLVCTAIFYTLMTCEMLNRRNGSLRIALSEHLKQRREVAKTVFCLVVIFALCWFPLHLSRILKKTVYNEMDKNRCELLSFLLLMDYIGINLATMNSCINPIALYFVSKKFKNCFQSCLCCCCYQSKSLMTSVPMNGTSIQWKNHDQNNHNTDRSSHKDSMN
# T17 sequence (P32238 whole entry): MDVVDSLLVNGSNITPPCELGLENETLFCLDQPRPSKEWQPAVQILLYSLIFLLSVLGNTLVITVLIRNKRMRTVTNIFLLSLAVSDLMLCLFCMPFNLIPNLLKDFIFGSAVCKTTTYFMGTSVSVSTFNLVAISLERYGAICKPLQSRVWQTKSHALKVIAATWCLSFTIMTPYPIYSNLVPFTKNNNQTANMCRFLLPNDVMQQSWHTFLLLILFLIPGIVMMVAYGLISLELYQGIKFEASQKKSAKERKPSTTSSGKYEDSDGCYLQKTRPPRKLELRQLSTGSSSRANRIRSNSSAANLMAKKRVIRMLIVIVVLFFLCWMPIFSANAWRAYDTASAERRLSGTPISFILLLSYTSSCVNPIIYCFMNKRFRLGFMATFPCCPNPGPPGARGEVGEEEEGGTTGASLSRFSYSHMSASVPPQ
# T6 sequence (P34972 whole entry): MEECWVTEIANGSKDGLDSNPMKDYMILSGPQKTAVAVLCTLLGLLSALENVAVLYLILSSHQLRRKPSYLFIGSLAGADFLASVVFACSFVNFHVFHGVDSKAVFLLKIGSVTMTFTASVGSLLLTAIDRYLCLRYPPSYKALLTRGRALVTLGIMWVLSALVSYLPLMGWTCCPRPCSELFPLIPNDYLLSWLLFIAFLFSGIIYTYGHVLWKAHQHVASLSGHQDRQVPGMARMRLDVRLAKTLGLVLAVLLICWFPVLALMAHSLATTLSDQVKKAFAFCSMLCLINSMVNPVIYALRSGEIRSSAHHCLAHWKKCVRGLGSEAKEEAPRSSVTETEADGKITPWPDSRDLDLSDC
# T12 sequence (P35462 whole entry): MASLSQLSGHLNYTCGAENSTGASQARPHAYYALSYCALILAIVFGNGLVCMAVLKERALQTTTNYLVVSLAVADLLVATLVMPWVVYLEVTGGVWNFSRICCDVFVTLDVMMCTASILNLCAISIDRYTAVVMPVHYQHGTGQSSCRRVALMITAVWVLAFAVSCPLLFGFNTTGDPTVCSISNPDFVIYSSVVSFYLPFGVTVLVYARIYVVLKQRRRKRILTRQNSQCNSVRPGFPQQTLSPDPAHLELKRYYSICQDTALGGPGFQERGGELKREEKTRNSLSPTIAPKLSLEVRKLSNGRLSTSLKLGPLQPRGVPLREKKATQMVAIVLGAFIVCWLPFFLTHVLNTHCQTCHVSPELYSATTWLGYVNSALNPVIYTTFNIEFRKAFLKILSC
# T25 sequence (Q01064 whole entry): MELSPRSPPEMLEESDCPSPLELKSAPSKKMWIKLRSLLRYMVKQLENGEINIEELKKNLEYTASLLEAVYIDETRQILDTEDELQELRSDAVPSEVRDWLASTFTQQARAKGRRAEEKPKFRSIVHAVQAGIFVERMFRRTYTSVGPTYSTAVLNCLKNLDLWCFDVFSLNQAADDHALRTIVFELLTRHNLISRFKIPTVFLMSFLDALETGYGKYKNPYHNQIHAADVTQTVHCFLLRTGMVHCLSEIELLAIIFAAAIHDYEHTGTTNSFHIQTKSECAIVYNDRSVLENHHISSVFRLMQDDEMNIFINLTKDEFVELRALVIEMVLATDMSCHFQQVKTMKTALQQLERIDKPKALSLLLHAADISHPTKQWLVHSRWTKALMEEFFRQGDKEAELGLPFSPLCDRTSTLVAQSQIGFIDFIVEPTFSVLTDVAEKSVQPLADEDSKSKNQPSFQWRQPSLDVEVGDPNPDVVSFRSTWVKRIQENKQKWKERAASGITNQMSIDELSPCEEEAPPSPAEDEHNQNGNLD
# T27 sequence (P30518 whole entry): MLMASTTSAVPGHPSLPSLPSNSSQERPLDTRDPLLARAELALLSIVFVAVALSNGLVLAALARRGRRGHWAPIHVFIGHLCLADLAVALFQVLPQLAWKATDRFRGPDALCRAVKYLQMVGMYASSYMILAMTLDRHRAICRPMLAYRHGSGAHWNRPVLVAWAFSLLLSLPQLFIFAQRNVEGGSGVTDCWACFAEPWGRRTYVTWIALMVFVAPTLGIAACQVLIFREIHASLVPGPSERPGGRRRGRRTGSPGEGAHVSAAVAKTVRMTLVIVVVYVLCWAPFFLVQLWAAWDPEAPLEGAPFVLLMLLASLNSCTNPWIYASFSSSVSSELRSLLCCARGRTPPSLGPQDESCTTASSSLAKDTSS
# T13 sequence (P46663 whole entry): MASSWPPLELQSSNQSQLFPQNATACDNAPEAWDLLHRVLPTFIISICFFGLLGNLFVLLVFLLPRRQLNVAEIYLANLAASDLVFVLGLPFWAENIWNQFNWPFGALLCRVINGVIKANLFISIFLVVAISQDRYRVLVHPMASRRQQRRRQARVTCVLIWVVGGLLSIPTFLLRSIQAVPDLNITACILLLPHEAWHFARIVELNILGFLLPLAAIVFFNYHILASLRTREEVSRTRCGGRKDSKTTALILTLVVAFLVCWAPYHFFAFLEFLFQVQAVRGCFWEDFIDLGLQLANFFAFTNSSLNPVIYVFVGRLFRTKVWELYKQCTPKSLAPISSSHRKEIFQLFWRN
# T23 sequence (P09917 whole entry): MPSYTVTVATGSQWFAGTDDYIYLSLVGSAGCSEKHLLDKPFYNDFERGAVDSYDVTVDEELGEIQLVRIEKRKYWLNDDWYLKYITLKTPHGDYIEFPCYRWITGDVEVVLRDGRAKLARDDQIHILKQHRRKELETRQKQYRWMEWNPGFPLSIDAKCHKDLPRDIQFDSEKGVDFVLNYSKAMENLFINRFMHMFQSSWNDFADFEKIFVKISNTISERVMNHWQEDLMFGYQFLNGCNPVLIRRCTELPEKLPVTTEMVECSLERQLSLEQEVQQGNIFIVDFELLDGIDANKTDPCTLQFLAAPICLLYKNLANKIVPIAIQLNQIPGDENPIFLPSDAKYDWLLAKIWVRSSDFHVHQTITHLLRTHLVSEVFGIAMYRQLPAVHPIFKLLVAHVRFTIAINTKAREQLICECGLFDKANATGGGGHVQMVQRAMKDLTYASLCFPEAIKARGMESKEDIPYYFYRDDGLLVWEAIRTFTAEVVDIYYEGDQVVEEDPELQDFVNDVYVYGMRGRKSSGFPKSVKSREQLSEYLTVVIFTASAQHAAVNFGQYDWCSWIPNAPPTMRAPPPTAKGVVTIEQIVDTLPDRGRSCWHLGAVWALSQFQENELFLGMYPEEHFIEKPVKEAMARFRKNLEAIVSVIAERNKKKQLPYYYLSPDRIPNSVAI
smiles,measurement,setting,value
Cc1ccc(-n2nc3c(=O)n(CCCC(=O)NCC(C)c4ccccc4)nc(C)c3c2C)cc1 (centres unmarked) [2k],inhibition at 5 µM,D2S (h),-1%
same,inhibition at 5 µM,ETA (h),-7%
same,% Inhibition of Control Specific Binding,[1],-23%
same,inhibition at 5 µM,CRF1 (h),-43%
same,inhibition at 5 µM,TRH1 (h),7%
same,inhibition at 5 µM,AT2 (h),10%
same,% Inhibition of Control Specific Binding,kainate,-6%
same,% Inhibition of Control Specific Binding,BZD (central),-24%
same,inhibition at 5 µM,CB2 (h),12%
same,inhibition at 5 µM,beta 1 (h),-1%
same,inhibition at 5 µM,A1 (h),0%
same,% Inhibition of Control Specific Binding,SKCa channel,0%
same,inhibition at 5 µM,D4.4 (h),2%
same,inhibition at 5 µM,[2],8%
same,% Inhibition of Control Specific Binding,[3],3%
same,inhibition at 5 µM,5-HT transporter (h),-8%
same,% Inhibition of Control Specific Binding,AMPA,2%
same,S6P phosphorylation,S6P phosphorylation,remained unaffected
same,% Inhibition of Control Specific Binding,5-HT (non-selective),-25%
same,inhibition at 5 µM,D3 (h),18%
same,% Inhibition of Control Specific Binding,GABA (non-selective),-7%
same,% Inhibition of Control Specific Binding,Na+ channel (site 2),4%
same,% Inhibition of Control Values,[4],3%
same,inhibition at 5 µM,B1 (h),-4%
same,inhibition at 5 µM,PDE3A (h),1%
same,inhibition at 5 µM,MC4 (h),-1%
same,% Inhibition of Control Specific Binding,ER (non-selective) (h),-15%
same,% Inhibition of Control Specific Binding,KATP channel,16%
same,inhibition at 5 µM,D1 (h),2%
same,inhibition at 5 µM,CCK1 (CCKA) (h),22%
same,inhibition at 5 µM,PKCalpha (h),7%
same,% Inhibition of Control Specific Binding,KV channel,-8%
same,inhibition at 5 µM,NOP (ORL1) (h),6%
same,% Inhibition of Control Specific Binding,opioid (non-selective),42%
same,% Inhibition of Control Specific Binding,P2X,1%
same,inhibition at 5 µM,CCK2 (CCKB) (h),-22%
same,inhibition at 5 µM,Eg5 (h),3%
same,inhibition at 5 µM,PPARgamma (h),-14%
same,% Inhibition of Control Specific Binding,Cl- channel (GABA-gated),17%
same,inhibition at 5 µM,5-lipoxygenase (h),1%
same,inhibition at 5 µM,AR (h),5%
same,inhibition at 5 µM,PDE1B (h),7%
same,inhibition at 5 µM,GR (h),-9%
same,inhibition at 5 µM,V2 (h),-4%
same,inhibition at 5 µM,BLT1 (LTB4) (h),16%
same,% Inhibition of Control Values,[5],11%
same,inhibition at 5 µM,B2 (h),-5%
